Data from PMC3538728 (PLoS ONE, 2013).
Several values for one entry are separate records, joined by “and”; a condition that tells them apart may be missing. Equal values may be shown once. Read-outs that look alike come from different tables or passages of the source. Marks after values point to notes of the source that are not given here.

Target: T1, γ-secretase (Homo sapiens, UniProt P49768)
T1 construct: γ-Secretase is composed of four subunits: Aph1, Pen2, glycosylated nicastrin, and endo-proteolyzed presenilin as the catalytic core; endogenous in cells; host or cells: HeLa S3 (ATCC CCL-2.2)
T1 sequence (Q9NZ42 whole entry, other chains not shown): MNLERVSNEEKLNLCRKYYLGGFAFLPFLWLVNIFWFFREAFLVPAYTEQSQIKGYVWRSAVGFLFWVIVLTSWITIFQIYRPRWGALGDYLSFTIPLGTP
T1 sequence (Q92542 34-709, other chains not shown, further chain): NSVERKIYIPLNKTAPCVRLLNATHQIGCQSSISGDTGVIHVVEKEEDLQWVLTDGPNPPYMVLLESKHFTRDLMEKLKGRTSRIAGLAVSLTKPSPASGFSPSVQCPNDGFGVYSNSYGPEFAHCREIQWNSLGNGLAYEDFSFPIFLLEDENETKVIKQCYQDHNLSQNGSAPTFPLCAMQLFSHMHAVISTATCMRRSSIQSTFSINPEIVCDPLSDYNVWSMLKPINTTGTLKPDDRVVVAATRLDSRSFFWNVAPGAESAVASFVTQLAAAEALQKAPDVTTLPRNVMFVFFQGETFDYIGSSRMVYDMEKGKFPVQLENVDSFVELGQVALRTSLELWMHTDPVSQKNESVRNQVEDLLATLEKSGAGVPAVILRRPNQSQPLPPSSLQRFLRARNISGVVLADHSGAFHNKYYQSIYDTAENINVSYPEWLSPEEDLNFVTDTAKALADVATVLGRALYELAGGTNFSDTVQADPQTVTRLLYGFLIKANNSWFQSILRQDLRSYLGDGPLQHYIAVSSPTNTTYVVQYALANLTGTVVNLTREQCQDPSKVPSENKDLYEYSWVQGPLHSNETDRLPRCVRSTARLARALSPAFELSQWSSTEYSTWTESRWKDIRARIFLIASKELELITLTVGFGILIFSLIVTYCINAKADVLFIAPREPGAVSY
T1 sequence (Q96BI3 whole entry, other chains not shown, further chain): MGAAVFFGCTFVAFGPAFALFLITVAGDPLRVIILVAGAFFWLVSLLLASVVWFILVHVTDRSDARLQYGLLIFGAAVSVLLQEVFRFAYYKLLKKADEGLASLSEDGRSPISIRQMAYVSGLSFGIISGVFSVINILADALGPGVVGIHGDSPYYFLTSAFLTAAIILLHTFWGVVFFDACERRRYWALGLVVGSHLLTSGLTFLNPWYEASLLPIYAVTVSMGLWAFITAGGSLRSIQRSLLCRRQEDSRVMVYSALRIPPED
Assay: Aβ 1–40 secretion from HeLa cells in the presence of DAPT (sandwich ELISA), dose-response fits
Type: cell-based
From the text: HeLa cells have been transfected using Lipofectamine LTX™ reagent following the manufacturer instructions. The transfection protocol and concentration of pSG5-cDNAwtC99 plasmid have been optimized to achieve desired assay sensitivity, a gradual increase in the substrate expression level, and a smooth transition from biphasic to the standard dose-response curves (Figs. 2–3). Initially concentration of pSG5-cDNAwtC99 plasmid have been optimized by western blots using anti-flag αM2 monoclonal antibody as described in our previous study. The cells were transfected in 24-well plates. The day before transfection the cells were trypsinized and counted. About 0.85×10^5 cells were seeded per well in 0.5 ml of complete growth medium to achieve about 75% confluent cultures on the day of transfection. Before the transfection old medium was removed and replaced with fresh 0.5 ml of complete growth medium. For transfection 5X DNA concentration was diluted in 500 µl of Opti-MEM®I Reduced Serum Media and mixed with 0.7 µl of Lipofectamine LTX™ Reagent. The solution was gently mixed and incubated for 30 minutes at room temperature to form DNA- Lipofectamine LTX™ Reagent complexes. Following the 30 min incubation, 100 µl of the DNA- Lipofectamine LTX™ Reagent complexes was added directly to each well containing cells and mixed gently by rocking the plate back and forth. The cells were incubated at 37°C in a CO2 incubator for 18 hours.
Fresh medium was added 18 hours after the transfection (0.5 ml per well), to prepare the cells for incubation with DAPT [18], [51]. Different concentrations of DAPT were prepared in DMSO, and added to the cells so that the final DMSO concentration in the culture was 0.1% (v/v). DMSO vehicle represents 0 nM DAPT. The cells were incubated with DAPT at given concentrations for 15 hours.
The assay linear response is in the range from 6–125 pM of Aβ 1–40. The assays were performed by closely following the manufacturer instructions. […] Each well was filled with 50 µl of the antibody conjugate solution and 50 µl of sample. The Aβ 1–40 standards were supplied by the manufacturer and prepared in parallel with other samples. All of the prepared wells were wrapped in aluminum foil and incubated overnight at 4°C with gentle mixing. The next day each well was washed five times with 300 µl of wash solution. After each […] wash, the wash solution was poured out and the wells were dried by tapping the plates on an absorbing paper. Washed wells were filled with 100 µl of the enzyme conjugate solution, covered, and incubated for 30 min at room temperature with shaking. The washing procedure was repeated once again to remove excess of the enzyme-conjugate. Next 100 µl of the substrate solution was added in each well in dark, and kept for 30 minutes covered at room temperature. The reaction was quenched by adding 50 µl of stop solution to each well, and within 15 min the signal intensity was read by measuring absorption at 450 nm.
All experimental results were analyzed using MicroCal Origin 7.0 program, nonlinear regressions, and equations that represent specific mechanism. All results are reported as the best fit value ± standard error with two-sigma confidence intervals shown in square brackets (i.e. x±y [p, q]). Briefly, the standard error indicates random errors (i.e. precision) for each method, while the two sigma confidence intervals indicate the ability of given experimental setup to provide information about specific best-fit parameter. The random error for presented experiments is low, as indicated by a low scatter from the best fit values. The sharp confidence intervals can be obtained by taking a large number of independent data points that cover all segments that define the measured functions. […]

[1] = HeLa, 250 ng/mL pSG5-cDNAwtC99, eqn. 2
[2] = HeLa, 400 ng/mL pSG5-cDNAwtC99, eqn. 2
[3] = HeLa, 600 ng/mL pSG5-cDNAwtC99, eqn. 2
[4] = HeLa, 800 ng/mL pSG5-cDNAwtC99, eqn. 2
[5] = average over 0-92 ng/mL pSG5-cDNAwtC99
[6] = untransfected HeLa cells, eqn. 1, six free fit parameters
[7] = untransfected HeLa cells, eqn. 1 with IA and MI as constants
[8] = untransfected HeLa cells, measured separately, taken as constant in regression

Structure (SMILES): C[C@H](NC(=O)Cc1cc(F)cc(F)c1)C(=O)N[C@H](C(=O)OC(C)(C)C)c1ccccc1 [DAPT, N-[N-(3,5-difluorophenacetyl)-L-alanyl]-S-phenylglycine t-butyl ester]
- Maximal Inhibition, MI (HeLa, 92 ng/mL pSG5-cDNAwtC99, eqn. 1): 1.9 ± 0.6 pM per 10^6 cells
- Initial Activity, IA (HeLa, 92 ng/mL pSG5-cDNAwtC99, eqn. 1, activity at zero DAPT): 119 ± 4 pM per 10^6 cells
- EC50 (HeLa, 92 ng/mL pSG5-cDNAwtC99, eqn. 1, read-out: Activation EC50): 178 ± 45 nM
- IC50 (HeLa, 92 ng/mL pSG5-cDNAwtC99, eqn. 1, read-out: Inhibition IC50): 661 ± 80 nM
- Inhibition Hill's coef [1]: 1.02 ± 0.07
- Maximal Inhibition, MI [1]: -0.9 ± 0.4 pM per 10^6 cells
- Initial Activity, IA (HeLa, 250 ng/mL pSG5-cDNAwtC99, eqn. 2, activity at zero DAPT): 229 ± 4 pM per 10^6 cells
- IC50 (HeLa, 250 ng/mL pSG5-cDNAwtC99, standard dose-response, eqn. 2, read-out: Inhibition IC50): 126 ± 9 nM
- Inhibition Hill's coef [2]: 0.95 ± 0.04
- Maximal Inhibition, MI [2]: 2.0 ± 0.9 pM per 10^6 cells
- Initial Activity, IA (HeLa, 400 ng/mL pSG5-cDNAwtC99, eqn. 2, activity at zero DAPT): 190 ± 2 pM per 10^6 cells
- IC50 (HeLa, 400 ng/mL pSG5-cDNAwtC99, standard dose-response, eqn. 2, read-out: Inhibition IC50): 110 ± 8 nM
- Inhibition Hill's coef [3]: 0.84 ± 0.03
- Maximal Inhibition, MI [3]: -4 ± 2 pM per 10^6 cells
- Initial Activity, IA (HeLa, 600 ng/mL pSG5-cDNAwtC99, eqn. 2, activity at zero DAPT): 140 ± 4 pM per 10^6 cells
- IC50 (HeLa, 600 ng/mL pSG5-cDNAwtC99, standard dose-response, eqn. 2, read-out: Inhibition IC50): 98 ± 6 nM
- Inhibition Hill's coef [4]: 0.61 ± 0.07
- Maximal Inhibition, MI [4]: 2 ± 0.8 pM per 10^6 cells
- Initial Activity, IA (HeLa, 800 ng/mL pSG5-cDNAwtC99, eqn. 2, activity at zero DAPT): 90 ± 1 pM per 10^6 cells
- IC50 (HeLa, 800 ng/mL pSG5-cDNAwtC99, standard dose-response, eqn. 2, read-out: Inhibition IC50): 89 ± 5 nM
- mode of inhibition (at saturating C99 substrate): noncompetitive inhibitor
- Activation Hill coef., average [5]: 1.0 ± 0.1
- Inhibition Hill's coef, average [5]: 2.1±0.2
- Maximal Inhibition, MI, average [5]: 0.5 ± 0.2 pM per 10^6 cells
- IC50 (average over 0-92 ng/mL pSG5-cDNAwtC99 (all biphasic curves), read-out: Inhibition IC50, average): 534 ± 53 nM
- EC50 (average over 0-92 ng/mL pSG5-cDNAwtC99 (all biphasic profiles), read-out: Activation EC50, average): 111 ± 41 nM
- Maximal Activity, MA, average (average over 0-92 ng/mL pSG5-cDNAwtC99 (biphasic curves)): 189 pM per 10^6 cells
- Maximal Inhibition, MI, average (average over 250-800 ng/mL pSG5-cDNAwtC99): -0.5 ± 0.6 pM per 10^6 cells
- IC50 (average over 250-800 ng/mL pSG5-cDNAwtC99 (standard dose-response curves), read-out: Inhibition IC50, average): 106 ± 16 nM
- potential to activate γ-secretase activity (MA vs. IA) (if binding only at the activation site, 31 pM vs. 196 pM Aβ 1–40 per 10^6 cells): ~7 fold
- cDNAwtC99 required to reach activation by DAPT (transfection without DAPT giving same Aβ 1-40 secretion as endogenous substrate at 33 nM DAPT): 70 ng/mL
- cDNAwtC99 required to reach activation by DAPT (transfection without DAPT giving same Aβ 1-40 secretion as endogenous substrate at 100 nM DAPT): 120 ng/mL
- cDNAwtC99 required to reach activation by DAPT (transfection without DAPT giving same Aβ 1-40 secretion as endogenous substrate at 333 nM DAPT): 118 ng/mL
- cDNAwtC99 required to reach activation by DAPT (transfection without DAPT giving same Aβ 1-40 secretion as endogenous substrate at 500 nM DAPT): 100 ng/mL
- cDNAwtC99 required to reach activation by DAPT (transfection without DAPT giving same Aβ 1-40 secretion as endogenous substrate at 1000 nM DAPT): 16 ng/mL
- activity on Endogenous substrate (Aβ 1-40 secreted) (untransfected HeLa cells, 33 nM DAPT): 81.1 pM per 10^6 cells
- activity on Endogenous substrate (Aβ 1-40 secreted) (untransfected HeLa cells, 100 nM DAPT): 132 pM per 10^6 cells and 132.0 pM per 10^6 cells
- activity on Endogenous substrate (Aβ 1-40 secreted) (untransfected HeLa cells, 333 nM DAPT): 129.0 pM per 10^6 cells
- activity on Endogenous substrate (Aβ 1-40 secreted) (untransfected HeLa cells, 500 nM DAPT): 111.6 pM per 10^6 cells
- activity on Endogenous substrate (Aβ 1-40 secreted) (untransfected HeLa cells, 1000 nM DAPT): 43.0 pM per 10^6 cells
- observed maximal activity, Aβ 1–40 secreted (untransfected HeLa cells, at 108 nM DAPT): 145 pM per 10^6 cells
- Activation Hill's coef [6]: 1.09 ± 0.4
- Inhibition Hill's coef [6]: 1.9±0.5 and 1.92 ± 0.5
- Activation Hill's coef [7]: 1.09 ± 0.16
- Inhibition Hill's coef [7]: 1.92 ± 0.25
- Maximal Activity, MA [7]: 196 ± 35 pM per 10^6 cells
- EC50 (untransfected HeLa cells, eqn. 1 with IA and MI as constants, read-out: Activation EC50): 72 ± 9 nM
- IC50 (untransfected HeLa cells, eqn. 1 with IA and MI as constants, read-out: Inhibition IC50): 472 ± 35 nM
- Initial Activity, IA [8]: 31 ^c pM per 10^6 cells
- Maximal Inhibition, MI [8]: 0 ^c pM per 10^6 cells
- DAPT concentration at which maximal activity is observed (untransfected HeLa cells, peak of biphasic curve): 108 nM
